Data taken from patent publication US7067633B2, “Targeting cellular entry, cell survival, and pathogenicity by dynein light chain 1/PIN in human cells” (Board of Regents, The University of Texas System, priority 2003, dated 2006).
Starred links: 1 amine or outer side, 2 acyl side, 3 side chain; linkers in the order of their positions; H or OH if unused. Positions of bridges follow the written chain, without caps; N, C: chain ends. Non-standard residues stand in square brackets, D forms with d. Residues, ends and D or L forms follow the SMILES beside them. Chains are numbered I, II in the order given. Actinocin(9to1) = Cc1c2oc3c(C)ccc(C(=O)[*:1])c3nc-2c(C(=O)[*:2])c(N)c1=O; NMeV = CN[C@H](C(=O)O)C(C)C; Sar = CNCC(=O)O

What was measured:
DLC1 = DLC1 protein and mRNA expression; assay type: cell-based, human; conditions: MCF-7 cells
Experimental: MCF-7/Tam-sen, MCF-7/TAMR1 and Ishikawa cells were treated with E2 (10^−9M) or Tam (10^−9M) for 24 h, and cell lysates were assayed for DLC1 and Pak1 protein expression. […] FIG. 21C: Effect of different periods of E2 treatment and cycloheximide (CHX) and Actinomycin D (ACTD) treatment on the ability of E2 to upregulate DLC1 mRNA in MCF-7 cells.

DLC1/PIN = assay: In vivo 32P-orthophosphate labeling and immunoprecipitation of T7-DLC1/PIN; assay type: cell-based, human; conditions: MCF-7 cells, EGF treatment
Experimental: FIGS. 2A–2G—MapDLC1/PINg of interaction domains of Pak1 and DLC1/PIN. FIG. 2A: Identification of Pak1 domains that interact with DLC1/PIN. GST-Pak1 fusion proteins containing wild-type (amino acids 1–545), kinase domain (amino acids 270–545), N-terminal domain (amino acids 1–132), PIX binding domain (amino acids 132–270), Nck-binding domain (amino acids 1–75), Cdc42/Rac-interacting (CRIB) domain (amino acids 52–132), and auto-inhibitory domain (amino acids 75–149) were incubated with in vitro translated DLC1/PIN (amino acids 1–89), and binding was analyzed by GST pull-down assay. FIG. 2B: Identification of the DLC1/PIN region that is involved in the binding of Pak1. GST-fusions of various lengths of DLC1/PIN were used in the GST pull-down assay using ^35S-labelled Pak1 (amino acids 1–545). FIGS. 2C–2G—Pak1 phosphorylation of DLC1/PIN. FIG. 2C: In vitro kinase assay using GST-DLC1/PIN as a substrate and purified bacterially expressed Pak1 as an enzyme. MBP was used as a positive control. FIG. 2D: ZR75R cells stably expressing T7-DLC1/PIN were labeled in vivo with ^32P-orthophosphate, serum starved, treated with EGF or HRG, and immunoprecipitated and phosphorylation status of DLC1/PIN was visualized by autoradiography. […] Cells were metabolically labeled with ^32P orthophosphate, treated with or without EGF (1 nM) and phosphorylation of T7-DLC1/PIN was analyzed by immunoprecipitation. […]

DLC1-ER interaction = assay: Coimmunoprecipitation of DLC1 with ER; assay type: cell-based, human; conditions: growth factor stimulation
Experimental: In vitro-translated ^35ER were incubated with GST-DLC1, and analyzed by SDS-PAGE and autoradiography. FIG. 13B: Identification of ER domains that interact with DLC1. GST-ER fusion proteins containing different deletion constructs were incubated with in vitro-translated 35S-DLC1 (aa 1-89), and binding was analyzed by GST pull-down assay. FIG. 13C: Mapping of the ER-binding region in DLC1. GST-fusions of various DLC1 deletion constructs were incubated with in vitro-translated ^35S-ER, and binding was analyzed by GST pull-down assay. […] Cell lysates from Ishikawa cells was immunoprecipitated (IP) with anti-ERá mAb and immunoblotted with anti-DLC1 or ER Abs. […] Cell lysates from MCF-7/TAM-sen or Ishikawa cells were treated with Tam (10^−9M) for 24 h, and IP with anti-ERá mAb and immunoblotted with anti-DLC1 or ER Abs. […] MCF-7/DLC1 cells were treated with or without Dox for 24 h and then treated with E2 (10^−9M) or Tam (10^−8M) for 24 h, and IP with anti-ERá mAb and immunoblotted with anti-DLC1 or ER Abs. FIG. 13G: Characterization of MCF-7 cells expressing T7-DLC1-Ser88A mutant under a tetracycline-inducible promoter. […] MCF-7/DLC1 and MCF-7/DLC1-Ser88A cells were treated with or without Dox for 24 h and cell lysates were IP with anti-ERá mAb and blotted with anti-DLC1, ERá and T7 Abs.
To this end, MCF-7 cells expressing a T7-DLC1 mutant in which Ser88 and amino acid 89 were deleted under a tet-inducible promoter (MCF-7/DLC1-1-87 mutant) were generated (FIG. 13G).

MDA-MB231 cells = assay: Vesicle formation and DLC1/PIN-Pak1 colocalization after growth factor stimulation; assay type: cell-based, human; conditions: serum-starved cells, 20 min
SKBR-3 cells = assay: Pak1-mediated macropinocytosis, vesicle formation by confocal microscopy; assay type: cell-based, human; conditions: cotransfected with GFP-Pak1
Experimental: FIG. 3—Requirement of DLC1/PIN in Pak1 mediated macropinocytosis. SKBR-3 cells were cotransfected with RFP-DLC1/PIN and GFP-Pak1 (upper panel), RFP-DLC1/PIN-S88A, and GFP-Pak1 (middle panel) and RFP-DLC1-1-66, and GFP-Pak1 (lower panel). Vesicle formation and localization of GFP and RFP proteins were analyzed by confocal microscopy. Ten randomly selected fields were analyzed for each condition. The experiment was repeated twice with similar results. Quantitation of vesicles formation was done using the following scoring system. −, cells containing 0–9 vesicles; +, cells containing 10–20 vesicles; and ++, cells containing >20 vesicles.
Requirement of DLC1/PIN in Pak1 mediated macropinocytosis. […] The inventors have used the fluorescein isothiocyanate (FITC)-labeled Dextran as a marker of endocytosis using a well-established dextran beads uptake assay (Dharmawardhane et al., 2000). […]
SK-BR3 cells were cotransfected with RFP-DLC1 and GFP-Pak1 (upper panel), RFP-DLC1-S88A and GFP-Pak1 (middle panel), and RFP-DLC8-1-66 and GFP-Pak1 (bottom panel). Vesicle formation and localization of GFP and RFP proteins were analyzed by confocal microscopy. Ten randomly selected fields were analyzed for each condition. […]

NIH3T3 cells = assay: UV-induced apoptosis, Lamin A/C nuclear integrity scoring; assay type: cell-based, murine
Experimental: FIGS. 5A–5C—Requirement of DLC1/PIN and Pak1 interaction in cell proliferation and survival. FIG. 5A: Equal number of cells ZR75R stable cells expressing DLC1/PIN wild type or DLC1/PIN^del88-89 mutant were plated and cell proliferation was determined by trypsinizing and counting cells using a coulter counter. Each colne was plated in triplicate and experiment was repeated twice with similar results. FIG. 5B: Cell cycle progression of DLC1/PIN wild type or mutant clones was analyzed by FACS analysis. […] For example, a smooth nuclear membrane was scored as nonapoptotic, as opposed to membrane blebbing or rupture, which was scored as apoptotic. Nuclei committed to enter mitosis were not scored in either of these groups because they were easily identified for their specific “pulverized” pattern of Lamin A/C staining. Ten randomly selected fields were analyzed for each condition. […]
DLC1/PIN regulation of cell growth and survival. […] After 10 h, apoptosis was quantitated by scoring the integrity of the nuclear membrane in cells expressing both RFP and myc tags to detect DLC/DLC1/PIN and Pak1 respectively (FIG. 5D).

In the case of C[C@]12CC[C@@H]3c4ccc(O)cc4C[C@@H](CCCCCCCCC[S+]([O-])CCCC(F)(F)C(F)(F)F)[C@H]3[C@@H]1CC[C@@H]2O (stereo partly drawn) [ICI 182,780], the “estrogen-induced DLC1 expression” value (DLC1) was “effectively blocked”.

For Cc1c2oc3c(C)ccc(C(=O)N[C@@H]4C(=O)N[C@H](C(C)C)C(=O)N5CCC[C@H]5C(=O)N(C)CC(=O)N(C)[C@@H](C(C)C)C(=O)O[C@@H]4C)c3nc-2c(C(=O)N[C@@H]2C(=O)N[C@H](C(C)C)C(=O)N3CCC[C@H]3C(=O)N(C)CC(=O)N(C)[C@@H](C(C)C)C(=O)O[C@@H]2C)c(N)c1=O [actinomycin D] (I: T[dV]P[Sar][NMeV] / II: T[dV]P[Sar][NMeV]; ester I:1-I:C, II:1-II:C; linker I:N-II:N via Actinocin(9to1)), the “estrogen-induced DLC1 expression” value (DLC1) was “effectively blocked”.

For “EGF: epidermal growth factor, physiologic Pak1 activator”, the DLC1/PIN phosphorylation (DLC1/PIN) was “stimulated DLC1/PIN phosphorylation”, the “interaction of DLC1 with ER” value (DLC1-ER interaction; tamoxifen-resistant Ishikawa cells) was “promotes” and the “interaction of DLC1 with ER” value (DLC1-ER interaction; tamoxifen-sensitive MCF-7 cells) was “not”. For the same compound, the “vesicle-like structures with colocalization of DLC1/PIN and Pak1” value (MDA-MB231 cells) was “substantial enhancement of vesicle-like structures”.

In the case of “S88A DLC1/PIN: DLC1/PIN mutant, serine 88 to alanine, lacking the Pak1 phosphorylation site”, the Pak1-induced vesicle formation (SKBR-3 cells) was “substantially interfered”, the “UV-induced apoptosis substantially reduced” value (NIH3T3 cells; 10 h after UV-irradiation) was “not” and the “protection from UV-induced apoptosis by overexpression of active Pak1” value (NIH3T3 cells; cotransfected with catalytically active Pak1) was “unable to protect”.
